Results as given in patent US10647675B2 (priority 2015, dated 2020).
Values after ≈ are worked out from the molar mass of the structure shown.

Columns and labels:
[1] = test system: Trichophyton rubrum KD-1130; test: Antifungal activity evaluation test: minimum inhibitory concentration (MIC), broth dilution by reference to CLSI M38-A2; assay type: cell-based; details: KD1130, read-out: MIC (T. rubrum)
Method: (§1) The minimum inhibitory concentration (MIC) for Trichophyton mentagrophytes and Trichophyton rubrum was measured by the following procedure by reference to Clinical and Laboratory standards Institute (CLSI) guidelines M38-A2. Reference document for the measurement method: National Committee for a Clinical Laboratory Standards. Reference method for broth dilution antifungal susceptibility testing of filamentous fungi. Approved standard Second edition M38-A2. Wayne, Pa.: National Committee for a Clinical Laboratory Standards, 2008. • Test compound solution: A test compound was dissolved in dimethyl sulfoxide (DMSO) at a concentration of 2.5 mg/mL to give a stock solution. The stock solution was appropriately diluted with DMSO to prepare a 2-fold dilution series. As control compounds, terbinafine and amorolfine were used. • Test strains: Trichophyton mentagrophytes SM-110 and Trichophyton rubrum KD-1130 were used. • Preparation of fungal culture to be inoculated: The above-mentioned test strain was suspended in 0.05% Tween 80-containing saline, and the fungi of the genus Trichophyton were prepared to a fungal concentration of 1×10^6 cells/mL by using a hemocytometer. Then, using MOPS-buffered RPMI 1640 medium (pH 7.0) as a test medium, a fungal culture of the fungi of the genus Trichophyton was diluted 250-fold (4×10^3 cells/mL) to give a fungal culture for inoculation. • MIC measurement of genus Trichophyton fungi: MOPS-buffered RPMI 1640 medium (pH 7.0) was dispensed by 100 μL to given wells of a 96 well U-bottom microplate. Then, the test compound solution (2 μL) was added, the mixture was sufficiently stirred by a plate mixer. The fungal culture (100 μL) was inoculated and the mixture was cultured at 35° C. for 4 days (final fungal concentration: 2×10^3 cells/mL). After the culture, the minimum drug concentration of a well in which a growth inhibitory action of not less than 80% was visually observed as compared to a growth control was taken as a minimum inhibitory concentration (MIC: μg/mL).
(§2) The abbreviations in the Tables mean the following fungi and compounds. • T. menta.: Trichophyton mentagrophytes • T. rubrum: Trichophyton rubrum • TBF: terbinafine • AMF: amorolfine

[2] = test system: Trichophyton mentagrophytes SM-110; test: as above; assay type: cell-based; details: SM110, read-out: MIC (T. menta.)
Method: as §1, §2

| MIC [1] [µg/mL] | MIC [2] [µg/mL] | Structure (SMILES) |
| --- | --- | --- |
| ≤ 0.1 | ≤ 0.1 | CCn1cc(CCc2ccc(Oc3ncccc3-c3cccnc3OC)cc2)cn1 [I-404, 2-{4-[2-(1-ethyl-1H-pyrazol-4-yl)ethyl]phenoxy}-2′-methoxy-3,3′-bipyridine] |
| ≤ 0.1 | ≤ 0.1 | COc1ccccc1-c1cccnc1Oc1ccc(C(F)(F)Cn2cccn2)nc1 [I-350, 2-({6-[1,1-difluoro-2-(1H-pyrazol-1-yl)ethyl]pyridin-3-yl}oxy)-3-(2-methoxyphenyl)pyridine] |
| ≤ 0.1 | ≤ 0.1 | COc1ccccc1-c1cncnc1Oc1ccc(Cl)cc1 [I-319, 4-(4-chlorophenoxy)-5-(2-methoxyphenyl)pyrimidine] |
| 0.2 to 0.78 (≈ 0.657 to 2.56 µM) | 0.2 to 0.78 (≈ 0.657 to 2.56 µM) | CC(=O)c1ccc(Oc2ncccc2-c2cnccc2C)cc1 [I-422] |
| ≤ 0.1 | ≤ 0.1 | COc1ccccc1-c1cccnc1Oc1ccc2c(c1)CCC2 [I-345, 2-[(2,3-dihydro-1H-inden-5-yl)oxy]-3-(2-methoxyphenyl)pyridine] |
| ≤ 0.1 | ≤ 0.1 | COc1cccc(-c2cccnc2Oc2ccc(Cl)cc2)c1 [I-200, 2-(4-chlorophenoxy)-3-(3-methoxyphenyl)pyridine] |
| ≤ 0.1 | ≤ 0.1 | COc1ccccc1-c1cccnc1Oc1cnc2c(c1)CCC=C2 [I-144, 3-{[3-(2-methoxyphenyl)pyridin-2-yl]oxy}-5,6-dihydroquinoline] |
| 0.2 to 0.78 (≈ 0.684 to 2.67 µM) | 0.2 to 0.78 (≈ 0.684 to 2.67 µM) | COc1ccncc1-c1cccnc1Oc1ccc(C)cc1 [I-252, 4′-methoxy-2-(p-tolyloxy)-3,3′-bipyridine] |
| ≤ 0.1 | ≤ 0.1 | COc1ccncc1-c1cccnc1Oc1ccc2c(c1)CCC2 [I-266, 2-[(2,3-dihydro-1H-inden-5-yl)oxy]-4′-methoxy-3,3′-bipyridine] |
| ≤ 0.1 | ≤ 0.1 | COc1ccncc1-c1cccnc1Oc1ccc(Br)cc1 [I-234, 2-(4-bromophenoxy)-4′-methoxy-3,3′-bipyridine] |
| ≤ 0.1 | ≤ 0.1 | COc1ncccc1-c1cccnc1Oc1ccc2c(c1)CCC2 [I-270, 2-[(2,3-dihydro-1H-inden-5-yl)oxy]-2′-methoxy-3,3′-bipyridine] |
| 1.56 to 6.25 (≈ 4.34 to 17.4 µM) | 1.56 to 6.25 (≈ 4.34 to 17.4 µM) | COc1ncccc1-c1cccnc1Oc1ccc(C(F)(F)CO)nc1 [I-347] |
| ≤ 0.1 | ≤ 0.1 | CCOC(=O)c1ccc(Oc2ncccc2-c2cnccc2C)cc1 [I-419] |
| ≤ 0.1 | ≤ 0.1 | CCc1ccc(Oc2ncccc2-c2ccncc2OC)cc1 [I-281, 2-(4-ethylphenoxy)-3′-methoxy-3,4′-bipyridine] |
| ≤ 0.1 | ≤ 0.1 | COc1ccccc1-c1cncnc1Oc1ccc(C(F)F)c(C)c1 [I-323, 4-[4-(difluoromethyl)-3-methylphenoxy]-5-(2-methoxyphenyl)pyrimidine] |
| 0.2 to 0.78 (≈ 0.639 to 2.49 µM) | 0.2 to 0.78 (≈ 0.639 to 2.49 µM) | COc1ccncc1-c1cccnc1Oc1ccc(Cl)cc1 [I-235, 2-(4-chlorophenoxy)-4′-methoxy-3,3′-bipyridine] |
| ≤ 0.1 | ≤ 0.1 | COc1ccncc1-c1cccnc1Oc1ccc(C(C)(F)F)cc1F [I-302] |
| ≤ 0.1 | ≤ 0.1 | COc1ccccc1-c1cccnc1Oc1ccc(OC(F)F)nc1 [I-370, 2-{[6-(difluoromethoxy)pyridin-3-yl]oxy}-3-(2-methoxyphenyl)pyridine] |

Continued, compound first:

| Structure (SMILES) | MIC [1] [µg/mL] | MIC [2] [µg/mL] |
| --- | --- | --- |
| COc1ncc(Cl)cc1-c1cccnc1Oc1cnc(C(F)(F)F)nc1 [I-180, 5-chloro-2-methoxy-2′-{[2-(trifluoromethyl)pyrimidin-5-yl]oxy}-3,3′-bipyridine] | ≤ 0.1 | ≤ 0.1 |
| Cc1nn2c(c1-c1cccnc1Oc1ccc(C(F)(F)F)cc1)OCC2 [I-232, 6-methyl-7-{2-[4-(trifluoromethyl)phenoxy]pyridin-3-yl}-2,3-dihydropyrazolo[1,5-b]oxazole] | 0.2 to 0.78 (≈ 0.554 to 2.16 µM) | 0.2 to 0.78 (≈ 0.554 to 2.16 µM) |
| FC(F)(F)c1ccc(Oc2ncncc2-c2cccc3c2OCC3)cn1 [I-327, 5-(2,3-dihydrobenzofuran-7-yl)-4-{[6-(trifluoromethyl)pyridin-3-yl]oxy}pyrimidine] | ≤ 0.1 | ≤ 0.1 |
| COc1cc(F)ccc1-c1cccnc1Oc1cnc(C2(C)CC2)nc1 [I-379, 5-{[3-(4-fluoro-2-methoxyphenyl)pyridin-2-yl]oxy}-2-(1-methylcyclopropyl)pyrimidine] | ≤ 0.1 | ≤ 0.1 |
| Cc1nsc(-c2cccnc2Oc2ccc(C(F)(F)F)nc2)c1Br [I-377, 4-bromo-3-methyl-5-(2-{[6-(trifluoromethyl)pyridin-3-yl]oxy}pyridin-3-yl)isothiazole] | ≤ 0.1 | ≤ 0.1 |
| COc1ccccc1-c1cccnc1Oc1cnc2c(c1)CCCC2N(C)C (stereo not shown) [I-143, 3-{[3-(2-methoxyphenyl)pyridin-2-yl]oxy}-N,N-dimethyl-5,6,7,8-tetrahydroquinolin-8-amine] | 0.2 to 0.78 (≈ 0.533 to 2.08 µM) | 0.2 to 0.78 (≈ 0.533 to 2.08 µM) |
| COc1cc(-c2cncnc2Oc2ccc(C(F)(F)F)nc2)c(F)cc1F [I-329, 5-(2,4-difluoro-5-methoxyphenyl)-4-{[6-(trifluoromethyl)pyridin-3-yl]oxy}pyrimidine] | ≤ 0.1 | ≤ 0.1 |
| COc1cc(F)ccc1-c1cncnc1Oc1ccc(C(C)(F)F)nc1 [I-359, 4-{[6-(1,1-difluoroethyl)pyridin-3-yl]oxy}-5-(4-fluoro-2-methoxyphenyl)pyrimidine] | ≤ 0.1 | ≤ 0.1 |
| COc1cc(F)ccc1-c1cccnc1Oc1cnc(N(C)Cc2nccs2)nc1 [I-194, 5-{[3-(4-fluoro-2-methoxyphenyl)pyridin-2-yl]oxy}-N-methyl-N-(thiazol-2-ylmethyl)pyrimidin-2-amine] | 0.2 to 0.78 (≈ 0.472 to 1.84 µM) | ≤ 0.1 |
| COc1ncccc1-c1cccnc1Oc1ccc(C(F)F)c(C)c1 [I-456] | ≤ 0.1 | ≤ 0.1 |
| C#CCOc1ccccc1-c1cccnc1Oc1ccc(C(F)(F)F)nc1 [I-56, 3-[2-(2-propyn-1-yloxy)phenyl]-2-{[6-(trifluoromethyl)pyridin-3-yl]oxy}pryidine] | 0.2 to 0.78 (≈ 0.54 to 2.11 µM) | 0.2 to 0.78 (≈ 0.54 to 2.11 µM) |
| COc1ncccc1-c1cccnc1Oc1cnc2c(c1)CCCC2 [I-135, 3-{[2′-methoxy-(3,3′-bipyridin)-2-yl]oxy}-5,6,7,8-tetrahydroquinoline] | ≤ 0.1 | ≤ 0.1 |
| COc1cc(F)ccc1-c1cccnc1Oc1cnc(Br)c(C)c1 [I-454] | ≤ 0.1 | ≤ 0.1 |
| COCC(F)(F)c1ccc(Oc2ncccc2-c2cc(OC)c(F)cc2F)cn1 [I-165, 2-{[6-(1,1-difluoro-2-methoxyethyl)pyridin-3-yl]oxy}-3-(2,4-difluoro-5-methoxyphenyl)pyridine] | ≤ 0.1 | ≤ 0.1 |
| COc1ncc(F)cc1-c1cccnc1Oc1cnc(C(F)(F)F)c(C)c1 [I-119, 5-fluoro-2-methoxy-2′-{[5-methyl-6-(trifluoromethyl)pyridin-3-yl]oxy}-3,3′-bipyridine] | ≤ 0.1 | ≤ 0.1 |
| Fc1ccc(F)c(-c2cccnc2Oc2ccc(C(F)(F)F)nc2)c1 [I-7, 3-(2,5-difluorophenyl)-2-{[6-(trifluoromethyl)pyridin-3-yl]oxy}pyridine] | ≤ 0.1 | ≤ 0.1 |
| CC(F)(F)c1ccc(Oc2ncccc2-c2nccc3ccccc23)cn1 [I-112, 1-(2-{[6-(1,1-difluoroethyl)pyridin-3-yl]oxy}-3-yl)isoquinoline] | 0.2 to 0.78 (≈ 0.55 to 2.15 µM) | 0.2 to 0.78 (≈ 0.55 to 2.15 µM) |
| COc1ccccc1-c1cccnc1Oc1ccc(C(F)(F)COS(=O)(=O)C(F)(F)F)nc1 [I-80, 2,2-difluoro-2-(5-{[3-(2-methoxyphenyl)pyridin-2-yl]oxy}pyridin-2-yl)ethyl trifluoromethanesulfonate] | 0.2 to 0.78 | 0.2 to 0.78 |
| COc1ncccc1-c1cccnc1Oc1ccc(OCc2ccccc2)nc1 [I-176, 2-{[6-(benzyloxy)pyridin-3-yl]oxy}-2′-methoxy-3,3′-bipyridine] | ≤ 0.1 | ≤ 0.1 |
| COc1cc(F)c(F)cc1-c1cncnc1Oc1ccc(C(C)(F)F)nc1 [I-336, 4-{[6-(1,1-difluoroethyl)pyridin-3-yl]oxy}-5-(4,5-difluoro-2-methoxyphenyl)pyrimidine] | ≤ 0.1 | ≤ 0.1 |
| CC(F)(F)c1ccc(Oc2ncccc2-c2cccc3ccnn23)cn1 [I-115, 7-(2-{[6-(1,1-difluoroethyl)pyridin-3-yl]oxy}pyridin-3-yl)pyrazolo[1,5-a]pyridine] | ≤ 0.1 | ≤ 0.1 |
| CCCN(C)c1ncc(Oc2ncccc2-c2cccnc2OC)cn1 [I-183] | ≤ 0.1 | ≤ 0.1 |
| Cn1nc(-c2cccnc2Oc2ccc(C(F)(F)F)nc2)c2cccnc21 [I-47, 1-methyl-3-(2-{[6-(trifluoromethyl)pyridin-3-yl]oxy}pyridin-3-yl)-1H-pyrazolo[3,4-b]pryidine] | 1.56 to 6.25 (≈ 4.2 to 16.8 µM) | 1.56 to 6.25 (≈ 4.2 to 16.8 µM) |
